Measured values taken from US7384927B2, “Alkylated porphyrins as pesticides acting both in the presence and absence of light” (priority 2003, dated 2008).

Assays:
Assay type in all cases: in vivo
[1] = tested on: Bactrocera oleae (olive fly); experiment: Uptake of alkylated porphyrins by flies fed porphyrin-containing bait; conditions: B. oleae
Procedure: (§1) Porphyrins: • a) meso[tri(N-methyl-pyridyl), mono(N-dodecyl-pyridyl)]porphine (abbr.: C12) • b) meso[tri(N-methyl-pyridyl), mono(N-tetradecyl-pyridyl)]porphine (abbr.: C14) • c) meso[tri(N-methyl-pyridyl), mono(N-octadecyl-pyridyl)]porphine (abbr.: C18) Bait: Aqueous solution containing 10% sucrose and 1% autolysed yeast Flies: • a) Ceratitis capitata (fruit fly) age: 1 week; weight: 5-6 mg • b) Bactrocera oleae (olive fly) age: 10 days; weight: 4-4.5 mg • c) Stomoxis calcitrans (stable fly) age: 10 days; weight: 12 mg Irradiation: • a) High pressure halogen lamp, equipped with infrared and UV filters, emission 360-850 nm, operated at intensities in the 760-2,000 μE s^−1m^−2 range • b) Sunlight, mid June at Padua latitude, average intensity of […] μE s^−1m^−2 with minimum and maximum values of 950 and, respectively, 1,380 μE s^−1m^−2
(§2) An appropriate number of flies (50 flies per each experiment) was caged in 115×55×70 mm Plexiglas cages with several holes (ø=0.5 mm) and starved for 36 h. Then, depending on the protocol to be adopted for each specific experiment, the flies were fed with the bait (10% sucrose and 1% autolysed yeast in neutral aqueous solution), which was either porphyrin-free or added with a predetermined concentration of the porphyrin. These flies were then used in the various experimental sessions.
(§3) At predetermined times, the flies were sacrificed by freezing; the dead flies were then homogenized with a Polytron in 10 ml of a 2% aqueous solution of sodium dodecylsulphate (SDS). The suspension was centrifuged for 10 min at 2,000 rpm, the pellet was discarded and known aliquots of the supernatant were diluted by means of a chloroform/methanol binary mixture (1/2, v/v). The porphyrin concentration was measured by reading the fluorescence emitted at wavelengths above 630 nm and interpolating the emission intensity with a calibration plot obtained with known amounts of the porphyrin. The results were expressed as nanomoles of porphyrin recovered per fly.

[2] = tested on: Ceratitis capitata (fruit fly); experiment: as above; conditions: C. capitata
Procedure: as §1, §2, §3

[3] = tested on: Stomoxis calcitrans (stable fly); experiment: as above; conditions: S. calcitrans
Procedure: as §1, §2, §3

[4] = tested on: Bactrocera oleae (olive fly); experiment: Release of alkylated porphyrin from flies after feeding with bait interrupted; conditions: B. oleae, 1.25 μM porphyrin in the bait
Procedure: as §2, §3

[5] = tested on: Ceratitis capitata (fruit fly); experiment: as above; conditions: C. capitata, 1.25 μM porphyrin in the bait
Procedure: as §2, §3

[6] = tested on: Stomoxis calcitrans (stable fly); experiment: as above; conditions: S. calcitrans, 1.25 μM porphyrin in the bait
Procedure: as §2, §3

Ceratitis capitata flies [7] = experiment: Insecticidal action in the dark: fly survival after porphyrin bait; conditions: dark, fed 24 h, survival 12 h after change to porphyrin-free bait
Procedure: For comparison, data obtained with two conventional porphyrins (as those described in WO 97/29637) offered to the insects for 24 h at a 3.0 and 8.1 μmolar concentration in the same bait are also shown. In all cases, the survival was determined 12 hours after changing food supply from a porphyrin-containing to a porphyrin-free bait. […] These flies were then used in the various experimental sessions. […] The number of survivors was evaluated 12 h after switching from administration of a porphyrin-containing bait to a porphyrin-free bait. In none of the experiments was mortality or any apparent toxic effect observed in control flies (flies not fed with porphyrin, see survival at 0 μM porphyrin concentration).

Bactrocera oleae flies = experiment: as above; conditions: fed 24 h, survival 12 h after change to porphyrin-free bait
Procedure: (§4) These flies were then used in the various experimental sessions. […] The number of survivors was evaluated 12 h after switching from administration of a porphyrin-containing bait to a porphyrin-free bait. In none of the experiments was mortality or any apparent toxic effect observed in control flies (flies not fed with porphyrin, see survival at 0 μM porphyrin concentration).

[8] = tested on: Stomoxis calcitrans flies; experiment: as above; conditions: fed 24 h, survival 12 h after change to porphyrin-free bait
Procedure: as §4

Ceratitis capitata flies [9] = experiment: Photoinsecticidal action: fly survival after bait and sunlight irradiation; conditions: 3 μM in bait, 12 h after feeding, survival 1 h after irradiation
Procedure: as §1
The survival was evaluated 1 h after the end of irradiation.
as §2

[10] = exposure time to bait 3 h, porphyrin in bait 1.24 μM
[11] = exposure time to bait 12 h, porphyrin in bait 1.24 μM
[12] = exposure time to bait 24 h, porphyrin in bait 1.24 μM
[13] = porphyrin concentration in bait 0.75 (μmoles), feeding 24 h
[14] = porphyrin concentration in bait 1.25 (μmoles), feeding 24 h
[15] = porphyrin concentration in bait 2.10 (μmoles), feeding 24 h
[16] = porphyrin concentration in bait 3.50 (μmoles), feeding 24 h
[17] = porphyrin concentration in bait 6.00 (μmoles), feeding 24 h

SMILES: CCCCCCCCCCCCCC[n+]1ccc(-c2c3nc(c(-c4cc[n+](C)cc4)c4ccc([nH]4)c(-c4cc[n+](C)cc4)c4nc(c(-c5cc[n+](C)cc5)c5ccc2[nH]5)C=C4)C=C3)cc1 [C14, meso[tri(N-methyl-pyridyl), mono(N-tetradecyl-pyridyl)]porphine]
- Recoveries (nmoles of porphyrin per fly) [1, 10]: 2.2 nmoles of porphyrin per fly
- Recoveries (nmoles of porphyrin per fly) [1, 11]: 3.7 nmoles of porphyrin per fly
- Recoveries (nmoles of porphyrin per fly) [1, 12]: 4.8 nmoles of porphyrin per fly
- Recoveries (nmoles of porphyrin per fly) [1, 13]: 3.9 nmoles of porphyrin per fly
- Recoveries (nmoles of porphyrin per fly) [1, 14]: 4.8 nmoles of porphyrin per fly
- Recoveries (nmoles of porphyrin per fly) [1, 15]: 8.5 nmoles of porphyrin per fly
- Recoveries (nmoles of porphyrin per fly) [1, 16]: 10.6 nmoles of porphyrin per fly
- Recoveries (nmoles of porphyrin per fly) [1, 17]: 13.8 nmoles of porphyrin per fly
- Recoveries (nmoles of porphyrin per fly) [2, 10]: 2.9 nmoles of porphyrin per fly
- Recoveries (nmoles of porphyrin per fly) [2, 11]: 5.3 nmoles of porphyrin per fly
- Recoveries (nmoles of porphyrin per fly) [2, 12]: 5.7 nmoles of porphyrin per fly
- Recoveries (nmoles of porphyrin per fly) [2, 13]: 2.6 nmoles of porphyrin per fly
- Recoveries (nmoles of porphyrin per fly) [2, 14]: 5.7 nmoles of porphyrin per fly
- Recoveries (nmoles of porphyrin per fly) [2, 15]: 9.6 nmoles of porphyrin per fly
- Recoveries (nmoles of porphyrin per fly) [2, 16]: 11.5 nmoles of porphyrin per fly
- Recoveries (nmoles of porphyrin per fly) [2, 17]: 14.0 nmoles of porphyrin per fly
- Recoveries (nmoles of porphyrin per fly) [3, 10]: 2.4 nmoles of porphyrin per fly
- Recoveries (nmoles of porphyrin per fly) [3, 11]: 5.6 nmoles of porphyrin per fly
- Recoveries (nmoles of porphyrin per fly) [3, 12]: 6.2 nmoles of porphyrin per fly
- Recoveries (nmoles of porphyrin per fly) [3, 13]: 4.1 nmoles of porphyrin per fly
- Recoveries (nmoles of porphyrin per fly) [3, 14]: 6.2 nmoles of porphyrin per fly
- Recoveries (nmoles of porphyrin per fly) [3, 15]: 10.2 nmoles of porphyrin per fly
- Recoveries (nmoles of porphyrin per fly) [3, 16]: 12.5 nmoles of porphyrin per fly
- Recoveries (nmoles of porphyrin per fly) [3, 17]: 12.8 nmoles of porphyrin per fly
- Recoveries (nmoles of porphyrin per fly), release ([4]; 12 h after feeding interrupted): 3.2 nmoles of porphyrin per fly
- Recoveries (nmoles of porphyrin per fly), release ([4]; 24 h after feeding interrupted): 2.0 nmoles of porphyrin per fly
- Recoveries (nmoles of porphyrin per fly), release ([4]; 48 h after feeding interrupted): 0.6 nmoles of porphyrin per fly
- Recoveries (nmoles of porphyrin per fly), release ([5]; 12 h after feeding interrupted): 3.0 nmoles of porphyrin per fly
- Recoveries (nmoles of porphyrin per fly), release ([5]; 24 h after feeding interrupted): 1.8 nmoles of porphyrin per fly
- Recoveries (nmoles of porphyrin per fly), release ([5]; 48 h after feeding interrupted): 0.7 nmoles of porphyrin per fly
- Recoveries (nmoles of porphyrin per fly), release ([6]; 12 h after feeding interrupted): 4.3 nmoles of porphyrin per fly
- Recoveries (nmoles of porphyrin per fly), release ([6]; 24 h after feeding interrupted): 2.2 nmoles of porphyrin per fly
- Recoveries (nmoles of porphyrin per fly), release ([6]; 48 h after feeding interrupted): 0.8 nmoles of porphyrin per fly
- Survival (% of control untreated flies) (Ceratitis capitata flies [7]; 0.75 μM in bait): 100 % of control untreated flies
- Survival (% of control untreated flies) (Ceratitis capitata flies [7]; 1.25 μM in bait): 51 % of control untreated flies
- Survival (% of control untreated flies) (Ceratitis capitata flies [7]; 2.10 μM in bait): 38 % of control untreated flies
- Survival (% of control untreated flies) (Ceratitis capitata flies [7]; 3.00 μM in bait): 21 % of control untreated flies
- Survival (% of control untreated flies) (Ceratitis capitata flies [7]; 5.00 μM in bait): 14 % of control untreated flies
- Survival (% of control untreated flies) (Ceratitis capitata flies [7]; 8.10 μM in bait): 9 % of control untreated flies
- Survival (% of control untreated flies) (Bactrocera oleae flies; 0.75 μM in bait): 100 % of control untreated flies
- Survival (% of control untreated flies) (Bactrocera oleae flies; 1.25 μM in bait): 100 % of control untreated flies
- Survival (% of control untreated flies) (Bactrocera oleae flies; 2.10 μM in bait): 69 % of control untreated flies
- Survival (% of control untreated flies) (Bactrocera oleae flies; 3.00 μM in bait): 50 % of control untreated flies
- Survival (% of control untreated flies) (Bactrocera oleae flies; 5.00 μM in bait): 37 % of control untreated flies
- Survival (% of control untreated flies) (Bactrocera oleae flies; 8.10 μM in bait): 19 % of control untreated flies
- Survival (% of control untreated flies) ([8]; 0.75 μM in bait): 100 % of control untreated flies
- Survival (% of control untreated flies) ([8]; 1.25 μM in bait): 77 % of control untreated flies
- Survival (% of control untreated flies) ([8]; 2.10 μM in bait): 52 % of control untreated flies
- Survival (% of control untreated flies) ([8]; 3.00 μM in bait): 31 % of control untreated flies
- Survival (% of control untreated flies) ([8]; 5.00 μM in bait): 11 % of control untreated flies
- Survival (% of control untreated flies) ([8]; 8.10 μM in bait): 3 % of control untreated flies
- Survival (% of control untreated flies) (Ceratitis capitata flies [9]; sunlight (average 1150 μE s^−1m^−2) 15 min): 21 % of control untreated flies
- Survival (% of control untreated flies) (Ceratitis capitata flies [9]; sunlight (average 1150 μE s^−1m^−2) 30 min): 10 % of control untreated flies
- Survival (% of control untreated flies) (Ceratitis capitata flies [9]; sunlight (average 1150 μE s^−1m^−2) 45 min): 0 % of control untreated flies
- Survival (% of control untreated flies) (Ceratitis capitata flies [9]; sunlight (average 1150 μE s^−1m^−2) 60 min): 0 % of control untreated flies
